Results from patent US9963467B2, “Boronic acid derivatives and therapeutic uses thereof” (Rempex Pharmaceuticals, Inc., priority 2014, dated 2018).

How the values were obtained:
ec302 (TEM-10) [1] = experiment: Aztreonam potentiation (MPC@4), ec302; assay type: cell-based
KP1004 (KPC-2) [2] = experiment: Aztreonam potentiation (MPC@4), KP1004; assay type: cell-based
KP1005 (CTX-M-14) [3] = experiment: Tigemonam potentiation (MPC@4), KP1005; assay type: cell-based
KP1009 (CTX-M-15) [4] = experiment: Tigemonam potentiation (MPC@4), KP1009; assay type: cell-based
ec308 (SHV-5) [5] = experiment: Tigemonam potentiation (MPC@4), ec308; assay type: cell-based
KP1010 (SHV-12) [6] = experiment: Tigemonam potentiation (MPC@4), KP1010; assay type: cell-based
ec302 (TEM-10) [7] = experiment: Tigemonam potentiation (MPC@4), ec302; assay type: cell-based
ECL1002 [8] = experiment: Tigemonam potentiation (MPC@4), ECL1002; assay type: cell-based
EC1010 (CMY-6) [9] = experiment: Tigemonam potentiation (MPC@4), EC1010; assay type: cell-based
CTX-M-14 = CTX-M-14 (Escherichia coli, UniProt Q9L5C7); experiment: Ki, nitrocefin cleavage by purified enzyme, CTX-M-14; assay type: biochemical; conditions: nitrocefin reporter substrate; read-out: Ki (CTX-M-14, NCF)
Summary of the method: (§1)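 Steps: enzyme plus inhibitor dilutions in reaction buffer; 10 min at room temperature; add nitrocefin; read absorbance at 490 nm each 10 sec for 10 min.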

SHV-12 = SHV-12 (Klebsiella pneumoniae, UniProt P0AD64, E235K/G234S/L31Q); experiment: Ki, nitrocefin cleavage by purified enzyme, SHV-12; assay type: biochemical; conditions: nitrocefin reporter substrate; read-out: Ki (SHV-12, NCF)
Summary of the method: as §1

KPC-2 = KPC-2 (Klebsiella pneumoniae, UniProt Q9F663); experiment: Ki, nitrocefin cleavage by purified enzyme, KPC-2; assay type: biochemical; conditions: nitrocefin reporter substrate; read-out: Ki (KPC-2, NCF)
Summary of the method: as §1

P99 = P99 (Enterobacter cloacae, UniProt P05364); experiment: Ki, nitrocefin cleavage by purified enzyme, P99; assay type: biochemical; conditions: nitrocefin reporter substrate; read-out: Ki (P99, NCF)
Summary of the method: as §1

Pa AmpC = Pa AmpC (Pseudomonas aeruginosa, UniProt P24735); experiment: Ki, nitrocefin cleavage by purified enzyme, Pa AmpC; assay type: biochemical; conditions: nitrocefin reporter substrate; read-out: Ki (Pa AmpC, NCF)
Summary of the method: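 Purified β-lactamases preincubated 10 min at room temperature with varying inhibitor concentrations in reaction buffer. Nitrocefin then added as reporter substrate; cleavage followed at 490 nm every 10 sec for 10 min to derive Ki.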

OXA-48 = OXA-48 (Klebsiella pneumoniae, UniProt Q6XEC0); experiment: Ki, nitrocefin cleavage by purified enzyme, OXA-48; assay type: biochemical; conditions: nitrocefin reporter substrate; read-out: Ki (OXA-48, NCF)
Summary of the method: as §1

[10] = Intravenous pharmacokinetics; assay type: in vivo; conditions: rat, plasma; rats, 20 mg/kg, intravenous infusion over 0.5 hours; read-out: Free Cl (converted)
Protocol: Rats (n=3 per compound) were administered by a single infusion. Intravenous doses were infused over 0.5 hours via an indwelling femoral vein cannula. […] (˜0.3 mL) samples were collected from each rat at designated time points up to 24 hours. Blood samples were centrifuged within 5 min of collection at 12000 g for 5 min to obtain plasma. The plasma samples were stored at −80° C. until analyzed. Data were analyzed using WinNonlin. The doses of all compounds tested were 20 mg/kg.

[11] = Monomer content of pH adjusted aqueous solutions (LC-UV); assay type: physicochemical; conditions: pH adjusted to 7.6 to 8, LC-UV
Summary of the method: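 Aqueous solutions at 1.00, 10.0 or 100 mg/mL (active fraction) brought to pH 7.6–8 with acid or base, compound fully dissolved. Injected within half an hour of preparation onto C18 reversed-phase LC (0.1% TFA water / 0.085% TFA methanol gradient); UV detection at 220, 254 and 300 nm.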

KP1004 (KPC-2) [12] = experiment: Biapenem potentiation (MPC@1), KP1004; conditions: BLI with biapenem at 1 μg/mL
KP1086 (OXA-48) = experiment: Biapenem potentiation (MPC@1), KP1086; conditions: BLI with biapenem at 1 μg/mL
[13] = system: strains overexpressing class A (ESBL) and class C beta-lactamases; experiment: Tigemonam MIC of test strains; assay type: cell-based; conditions: across the test strains
KP1005 (CTX-M-14) [14] = experiment: Aztreonam potentiation (MPC@4), KP1005; assay type: cell-based; conditions: read-out: Aztreonam MIC KP1005
KP1009 (CTX-M-15) [15] = experiment: organism not typed; assay type: cell-based; conditions: read-out: Aztreonam MIC KP1009
ec308 (SHV-5) [16] = experiment: Aztreonam potentiation (MPC@4), ec308; assay type: cell-based; conditions: read-out: Aztreonam MIC ec308
KP1010 (SHV-12) [17] = experiment: Aztreonam potentiation (MPC@4), KP1010; assay type: cell-based; conditions: read-out: Aztreonam MIC KP1010
ECL1002 [18] = experiment: Aztreonam potentiation (MPC@4), ECL1002; assay type: cell-based; conditions: read-out: Aztreonam MIC ECL1002
EC1010 (CMY-6) [19] = experiment: organism not typed; assay type: cell-based; conditions: read-out: Aztreonam MIC EC1010
[20] = system: strains of various bacteria that are resistant to aztreonam due to expression of various β-lactamases; experiment: Aztreonam MIC of test strains; assay type: cell-based; conditions: read-out: Aztreonam MICs of test strains; across the test strains

KPC-2, sequence (Q9F663 25-293, looked up, species assumed): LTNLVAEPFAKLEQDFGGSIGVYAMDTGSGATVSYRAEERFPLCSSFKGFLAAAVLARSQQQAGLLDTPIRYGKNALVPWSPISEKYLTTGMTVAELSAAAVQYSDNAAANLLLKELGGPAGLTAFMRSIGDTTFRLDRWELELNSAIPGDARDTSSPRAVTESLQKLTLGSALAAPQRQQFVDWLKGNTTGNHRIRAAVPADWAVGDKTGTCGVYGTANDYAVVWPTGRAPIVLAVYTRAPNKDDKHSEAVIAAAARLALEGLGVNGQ
P99, sequence (P05364 21-381): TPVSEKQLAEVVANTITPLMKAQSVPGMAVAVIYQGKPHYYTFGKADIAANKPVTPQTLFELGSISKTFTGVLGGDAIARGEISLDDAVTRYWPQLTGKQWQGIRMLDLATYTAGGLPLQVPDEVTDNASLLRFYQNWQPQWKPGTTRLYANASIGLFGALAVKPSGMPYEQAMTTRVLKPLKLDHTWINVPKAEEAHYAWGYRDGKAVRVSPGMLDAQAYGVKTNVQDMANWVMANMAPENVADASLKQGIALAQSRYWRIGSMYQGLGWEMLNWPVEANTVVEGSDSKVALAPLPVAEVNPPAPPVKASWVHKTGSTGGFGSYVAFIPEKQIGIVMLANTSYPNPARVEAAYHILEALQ
SHV-12, sequence (P0AD64 22-286 L31Q/G234S/E235K): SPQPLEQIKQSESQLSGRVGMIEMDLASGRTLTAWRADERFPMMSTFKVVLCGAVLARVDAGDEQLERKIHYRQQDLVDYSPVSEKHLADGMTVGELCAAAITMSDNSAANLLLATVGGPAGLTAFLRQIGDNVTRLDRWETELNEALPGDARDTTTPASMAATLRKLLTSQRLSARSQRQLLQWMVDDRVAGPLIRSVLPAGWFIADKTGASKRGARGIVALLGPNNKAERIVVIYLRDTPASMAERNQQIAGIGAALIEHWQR
CTX-M-14, sequence (Q9L5C7 29-291): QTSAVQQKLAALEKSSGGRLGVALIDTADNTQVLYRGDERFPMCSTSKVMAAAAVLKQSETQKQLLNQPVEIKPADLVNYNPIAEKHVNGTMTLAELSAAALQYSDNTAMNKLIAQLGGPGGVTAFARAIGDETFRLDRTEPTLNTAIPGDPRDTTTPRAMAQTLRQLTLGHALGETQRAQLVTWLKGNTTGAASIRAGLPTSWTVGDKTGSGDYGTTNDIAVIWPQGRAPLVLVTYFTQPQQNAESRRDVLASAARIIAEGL
Pa AmpC, sequence (P24735 27-397): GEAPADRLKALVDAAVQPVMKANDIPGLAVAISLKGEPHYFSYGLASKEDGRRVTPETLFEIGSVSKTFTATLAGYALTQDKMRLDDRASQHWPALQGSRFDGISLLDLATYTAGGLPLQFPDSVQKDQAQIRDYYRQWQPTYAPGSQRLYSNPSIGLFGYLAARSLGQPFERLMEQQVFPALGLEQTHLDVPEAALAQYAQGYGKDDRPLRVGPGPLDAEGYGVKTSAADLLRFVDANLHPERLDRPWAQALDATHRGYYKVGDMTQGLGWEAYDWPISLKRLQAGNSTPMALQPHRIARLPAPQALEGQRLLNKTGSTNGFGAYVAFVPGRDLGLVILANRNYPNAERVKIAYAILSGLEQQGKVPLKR
OXA-48, sequence (Q6XEC0 23-265, looked up, species assumed): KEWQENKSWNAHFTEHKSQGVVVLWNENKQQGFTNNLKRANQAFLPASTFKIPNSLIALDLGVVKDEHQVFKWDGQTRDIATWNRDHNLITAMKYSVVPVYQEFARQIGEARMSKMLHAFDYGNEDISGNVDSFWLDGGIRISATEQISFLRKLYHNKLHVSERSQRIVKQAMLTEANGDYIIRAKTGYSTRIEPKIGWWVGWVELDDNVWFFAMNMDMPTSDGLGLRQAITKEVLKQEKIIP

COc1ccc2c(c1C(=O)O)OB(O)[C@@H](NC(=O)Cc1cccs1)C2 [Compound 29, (R)-2-hydroxy-7-methoxy-3-(2-(thiophen-2-yl)acetamido)-3,4-dihydro-2H-benzo[e][1,2]oxaborinine-8-carboxylic acid]
AZT MPC4 TEM-10 ec302 (ec302 (TEM-10) [1]; BLI with aztreonam at 4 μg/mL): X (MIC of less than 1 ng/mL) | AZT MPC4 KPC-2 KP1004 (KP1004 (KPC-2) [2]; BLI with aztreonam at 4 μg/mL): Y (MIC of 1 μg/mL to 10 μg/mL) | TIG MPC4 CTX-M-14 KP1005 (KP1005 (CTX-M-14) [3]; BLI with tigemonam at 4 μg/mL): X (MIC of less than 1 μg/mL) | TIG MPC4 CTX-M-15 KP1009 (KP1009 (CTX-M-15) [4]; BLI with tigemonam at 4 μg/mL): X (MIC of less than 1 μg/mL) | TIG MPC4 SHV-5 ec308 (ec308 (SHV-5) [5]): X (key: X: MIC of less than 1 μg/mL; Y: MIC of 1 μg/mL to 10 μg/mL; Z: MIC of greater than 10 μg/mL) | TIG MPC4 SHV-12 KP1010 (KP1010 (SHV-12) [6]): X (key: X: MIC of less than 1 μg/mL; Y: MIC of 1 μg/mL to 10 μg/mL; Z: MIC of greater than 10 μg/mL) | TIG MPC4 TEM-10 ec302 (ec302 (TEM-10) [7]): Y (key: X: MIC of less than 1 ng/mL; Y: MIC of 1 μg/mL to 10 μg/mL; Z: MIC of greater than 10 μg/mL) | TIG MPC4 ECL1002 (ECL1002 [8]; BLI with tigemonam at 4 μg/mL): X (MIC of less than 1 μg/mL) | TIG MPC4 CMY-6 EC1010 (EC1010 (CMY-6) [9]; BLI with tigemonam at 4 μg/mL): X (MIC of less than 1 μg/mL) | Ki (CTX-M-14): < 1 nM | Ki (SHV-12): < 1 nM | Ki (KPC-2): 1 to 10 nM | Ki (P99): 1 to 10 nM | Ki (Pa AmpC): 1 to 10 nM | Ki (OXA-48): < 1 nM | clearance [10]: 11.2 mL/min/kg | % Monomer in 1 mg/mL salt solution ([11]; 1 mg/mL aqueous salt solution): 99.4% | % Monomer in 10 mg/mL salt solution ([11]; 10 mg/mL aqueous salt solution): 98.6% | % Monomer in 100 mg/mL salt solution ([11]; 100 mg/mL aqueous salt solution): 67.0% | BPM MPC1 KP1004 KPC-2 (KP1004 (KPC-2) [12]): X (MIC of less than 1 μg/mL) | BPM MPC1 OXA-48 KP1086 (KP1086 (OXA-48)): Y (MIC of 1 μg/mL to 10 μg/mL)

CC1(C)[C@H](NC(=O)/C(=N\OCC(=O)O)c2csc(N)n2)C(=O)N1OS(=O)(=O)O [Tigemonam, reference compound]
Tigemonam MIC KP1005 (KP1005 (CTX-M-14) [3]; tigemonam alone): Z (MIC of greater than 10 μg/mL) | Tigemonam MIC KP1009 (KP1009 (CTX-M-15) [4]; tigemonam alone): Z (MIC of greater than 10 μg/mL) | Tigemonam MIC ec308 (ec308 (SHV-5) [5]; tigemonam alone): Z (MIC of greater than 10 μg/mL) | Tigemonam MIC KP1010 (KP1010 (SHV-12) [6]; tigemonam alone): Z (MIC of greater than 10 μg/mL) | Tigemonam MIC ec302 (ec302 (TEM-10) [7]; tigemonam alone): Z (MIC of greater than 10 μg/mL) | Tigemonam MIC ECL1002 (ECL1002 [8]; tigemonam alone): Z (MIC of greater than 10 μg/mL) | Tigemonam MIC EC1010 (EC1010 (CMY-6) [9]; tigemonam alone): Z (MIC of greater than 10 μg/mL) | Tigemonam MICs of test strains [13]: ≥ 16 µg/mL

C[C@H]1[C@H](NC(=O)/C(=N\OC(C)(C)C(=O)O)c2csc(N)n2)C(=O)N1S(=O)(=O)O [Aztreonam, reference compound]
MIC (KP1005 (CTX-M-14) [14]): > 10 µg/mL | MIC (KP1009 (CTX-M-15) [15]): > 10 µg/mL | MIC (ec308 (SHV-5) [16]): > 10 µg/mL | MIC (KP1010 (SHV-12) [17]): > 10 µg/mL | MIC (ec302 (TEM-10) [1]; read-out: Aztreonam MIC ec302): > 10 µg/mL | MIC (KP1004 (KPC-2) [2]; read-out: Aztreonam MIC KP1004): > 10 µg/mL | MIC (ECL1002 [18]): > 10 µg/mL | MIC (EC1010 (CMY-6) [19]): > 10 µg/mL | MIC [20]: ≥ 64 µg/mL
